Laboratory results from ChEMBL document CHEMBL1132119, “1-Arylnaphthalene lignan: a novel scaffold for type 5 phosphodiesterase inhibitor” (J Med Chem, 1999).

What follows are compounds tested against Phosphodiesterase 1 (Canis familiaris) (assay: Inhibitory activity against phosphodiesterase 1 (PDE I), isolated from cardiac ventricle). Details: not given.
`COC(=O)c1c(C(=O)N2CCN(CCO)CC2)cc2cc(OC)c(OC)cc2c1-c1ccc2c(c1)OCO2` showed an IC50 of 55 µM. Compound `COc1cc2cc(C(=O)N3CCN(CCO)CC3)c(CO)c(-c3cc(OC)c(OC)c(OC)c3)c2cc1OC` has an IC50 greater than 100 µM. `COC(=O)c1c(C(=O)N2CCC(O)CC2)cc2cc(OC)c(OC)cc2c1-c1cc(OC)c(OC)c(OC)c1` gave an IC50 of 74 µM. `COc1cc2cc3c(c(-c4cc(OC)c(OC)c(OC)c4)c2cc1OC)C(=O)N(C)C3=O` showed an IC50 greater than 100 µM. `COC(=O)c1c(C(=O)N2CCN(CCO)CC2)cc2ccc(C)cc2c1-c1cc(Br)c(OC)c(OC)c1` was tested, and the IC50 was 3.5 µM. Work on `COc1cc2cc(CO)c(CO)c(-c3cc(OC)c(OC)c(OC)c3)c2cc1OC` yielded an IC50 of 18 µM. `COc1cc2cc3c(c(-c4cc(OC)c(OC)c(OC)c4)c2cc1OC)COC3=O` gave an IC50 of 0.43 µM. Work on `COC(=O)c1c(C(=O)N2CCN(CCO)CC2)cc2cc(OC)c(OC)c(OC)c2c1-c1cc(Br)c(OC)c(OC)c1` yielded an IC50 greater than 100 µM. With `COC(=O)c1c(C(=O)N2CCN(CCO)CC2)cc2cc(OC)c(OC)cc2c1-c1cccs1` the IC50 was 77 µM. For `COC(=O)c1c(C(=O)N2CCN(CCO)CC2)cc2ccccc2c1-c1cc(Br)c(OC)c(OC)c1`, the IC50 was 3.4 µM. Compound `COc1cc2cc(N)c(CO)c(-c3cc(OC)c(OC)c(OC)c3)c2cc1OC` has an IC50 of 2.1 µM. With `COC(=O)c1c(C(=O)N2CCN(CCO)CC2)cc2cc(OC)c(OC)cc2c1-c1cc(Br)c(OC)c(OC)c1` the IC50 was 11 µM. For `COC(=O)c1c(C(=O)N2CCN(CCO)CC2)cc2ccc(Cl)cc2c1-c1cc(Br)c(OC)c(OC)c1`, the IC50 was 1.1 µM. For `COC(=O)c1c(C(=O)N2CCN(CCO)CC2)cc2cc(OC)c(OC)cc2c1-c1ccc(Cl)c(Cl)c1`, the IC50 was 82 µM. Compound `COC(=O)c1c(C(N)=O)cc2cc(OC)c(OC)cc2c1-c1cc(OC)c(OC)c(OC)c1` has an IC50 of 0.82 µM. For `COC(=O)c1c(C(=O)N2CCN(CCO)CC2)cc2cc(OC)c(OC)cc2c1-c1cc(N)c(OC)c(OC)c1`, the IC50 was greater than 100 µM. For `COC(=O)c1c(C(=O)N2CCN(CCO)CC2)cc2cc(OC)c(OC)cc2c1-c1cccc([N+](=O)[O-])c1`, the IC50 was greater than 100 µM. In the case of `CNC(=O)c1cc2cc(OC)c(OC)cc2c(-c2cc(OC)c(OC)c(OC)c2)c1C(=O)OC`, the IC50 is reported as greater than 100 µM. `COC(=O)c1c(C(=O)N2CCN(C)CC2)cc2cc(OC)c(OC)cc2c1-c1cc(OC)c(OC)c(OC)c1` gave an IC50 of 69 µM.

The compounds below were run against Phosphodiesterase 3 (Canis familiaris) (assay: Inhibitory activity against phosphodiesterase 3 (PDE 3) isolated from cardiac ventricle). Details: not given.
`COC(=O)c1c(C(=O)N2CCN(CCO)CC2)cc2cc(OC)c(OC)cc2c1-c1ccc2c(c1)OCO2` showed an IC50 greater than 100 µM. `COc1cc2cc(C(=O)N3CCN(CCO)CC3)c(CO)c(-c3cc(OC)c(OC)c(OC)c3)c2cc1OC` was tested, and the IC50 was greater than 100 µM. For `COC(=O)c1c(C(=O)N2CCC(O)CC2)cc2cc(OC)c(OC)cc2c1-c1cc(OC)c(OC)c(OC)c1`, the IC50 was greater than 100 µM. `COc1cc2cc3c(c(-c4cc(OC)c(OC)c(OC)c4)c2cc1OC)C(=O)N(C)C3=O` was tested, and the IC50 was greater than 100 µM. Work on `COC(=O)c1c(C(=O)N2CCN(CCO)CC2)cc2ccc(C)cc2c1-c1cc(Br)c(OC)c(OC)c1` yielded an IC50 greater than 100 µM. `COc1cc2cc(CO)c(CO)c(-c3cc(OC)c(OC)c(OC)c3)c2cc1OC` showed an IC50 of 0.88 µM. With `COc1cc2cc3c(c(-c4cc(OC)c(OC)c(OC)c4)c2cc1OC)COC3=O` the IC50 was 0.84 µM. Compound `COC(=O)c1c(C(=O)N2CCN(CCO)CC2)cc2cc(OC)c(OC)c(OC)c2c1-c1cc(Br)c(OC)c(OC)c1` has an IC50 greater than 100 µM. `COC(=O)c1c(C(=O)N2CCN(CCO)CC2)cc2cc(OC)c(OC)cc2c1-c1cccs1` showed an IC50 greater than 100 µM. In the case of `COC(=O)c1c(C(=O)N2CCN(CCO)CC2)cc2ccccc2c1-c1cc(Br)c(OC)c(OC)c1`, the IC50 is reported as greater than 100 µM. With `COc1cc2cc(N)c(CO)c(-c3cc(OC)c(OC)c(OC)c3)c2cc1OC` the IC50 was 3.5 µM. With `COC(=O)c1c(C(=O)N2CCN(CCO)CC2)cc2cc(OC)c(OC)cc2c1-c1cc(Br)c(OC)c(OC)c1` the IC50 was greater than 100 µM. Work on `COC(=O)c1c(C(=O)N2CCN(CCO)CC2)cc2ccc(Cl)cc2c1-c1cc(Br)c(OC)c(OC)c1` yielded an IC50 greater than 100 µM. With `COC(=O)c1c(C(=O)N2CCN(CCO)CC2)cc2cc(OC)c(OC)cc2c1-c1ccc(Cl)c(Cl)c1` the IC50 was greater than 100 µM. In the case of `COC(=O)c1c(C(N)=O)cc2cc(OC)c(OC)cc2c1-c1cc(OC)c(OC)c(OC)c1`, the IC50 is reported as 0.32 µM. Compound `COC(=O)c1c(C(=O)N2CCN(CCO)CC2)cc2cc(OC)c(OC)cc2c1-c1cc(N)c(OC)c(OC)c1` has an IC50 greater than 100 µM. Work on `COC(=O)c1c(C(=O)N2CCN(CCO)CC2)cc2cc(OC)c(OC)cc2c1-c1cccc([N+](=O)[O-])c1` yielded an IC50 greater than 100 µM. `CNC(=O)c1cc2cc(OC)c(OC)cc2c(-c2cc(OC)c(OC)c(OC)c2)c1C(=O)OC` showed an IC50 of 2.9 µM. Compound `COC(=O)c1c(C(=O)N2CCN(C)CC2)cc2cc(OC)c(OC)cc2c1-c1cc(OC)c(OC)c(OC)c1` has an IC50 greater than 100 µM.

The compounds below were run against Phosphodiesterase 4 (Canis familiaris) (assay: Inhibition of canine lung Phosphodiesterase 4). Details: not given.
`COC(=O)c1c(C(=O)N2CCN(CCO)CC2)cc2ccccc2c1-c1cc(Br)c(OC)c(OC)c1` was tested, and the IC50 was greater than 100 µM. For `COC(=O)c1c(C(=O)N2CCN(CCO)CC2)cc2cc(OC)c(OC)cc2c1-c1cc(Br)c(OC)c(OC)c1`, the IC50 was greater than 100 µM.

Species: Rattus norvegicus
Assay: Relaxant effect on rat aortic rings.
Assay type: functional, organism-based
Details: Aorta
`COC(=O)c1c(C(=O)N2CCN(CCO)CC2)cc2ccccc2c1-c1cc(Br)c(OC)c(OC)c1` was tested, and the EC50 was 0.79 µM. For `COC(=O)c1c(C(=O)N2CCN(CCO)CC2)cc2cc(OC)c(OC)cc2c1-c1cc(Br)c(OC)c(OC)c1`, the EC50 was 0.46 µM.

These compounds were tested against cGMP-specific 3',5'-cyclic phosphodiesterase (Canis lupus familiaris, UniProt O77746) (assay: Inhibitory activity against phosphodiesterase 5 (PDE V), isolated from lung). Details: not given.
For `COC(=O)c1c(C(=O)N2CCN(CCO)CC2)cc2cc(OC)c(OC)cc2c1-c1ccc2c(c1)OCO2`, the IC50 was 33 µM. Compound `COc1cc2cc(C(=O)N3CCN(CCO)CC3)c(CO)c(-c3cc(OC)c(OC)c(OC)c3)c2cc1OC` has an IC50 greater than 100 µM. `COC(=O)c1c(C(=O)N2CCC(O)CC2)cc2cc(OC)c(OC)cc2c1-c1cc(OC)c(OC)c(OC)c1` gave an IC50 of 0.17 µM. Compound `COc1cc2cc3c(c(-c4cc(OC)c(OC)c(OC)c4)c2cc1OC)C(=O)N(C)C3=O` has an IC50 greater than 100 µM. `COC(=O)c1c(C(=O)N2CCN(CCO)CC2)cc2ccc(C)cc2c1-c1cc(Br)c(OC)c(OC)c1` was tested, and the IC50 was 0.051 µM. `COc1cc2cc(CO)c(CO)c(-c3cc(OC)c(OC)c(OC)c3)c2cc1OC` gave an IC50 of 13 µM. Compound `COc1cc2cc3c(c(-c4cc(OC)c(OC)c(OC)c4)c2cc1OC)COC3=O` has an IC50 of 0.068 µM. Work on `COC(=O)c1c(C(=O)N2CCN(CCO)CC2)cc2cc(OC)c(OC)c(OC)c2c1-c1cc(Br)c(OC)c(OC)c1` yielded an IC50 greater than 100 µM. For `COC(=O)c1c(C(=O)N2CCN(CCO)CC2)cc2cc(OC)c(OC)cc2c1-c1cccs1`, the IC50 was greater than 100 µM. For `COC(=O)c1c(C(=O)N2CCN(CCO)CC2)cc2ccccc2c1-c1cc(Br)c(OC)c(OC)c1`, the IC50 was 0.025 µM. In the case of `COc1cc2cc(N)c(CO)c(-c3cc(OC)c(OC)c(OC)c3)c2cc1OC`, the IC50 is reported as 13 µM. In the case of `COC(=O)c1c(C(=O)N2CCN(CCO)CC2)cc2cc(OC)c(OC)cc2c1-c1cc(Br)c(OC)c(OC)c1`, the IC50 is reported as 0.024 µM. For `COC(=O)c1c(C(=O)N2CCN(CCO)CC2)cc2ccc(Cl)cc2c1-c1cc(Br)c(OC)c(OC)c1`, the IC50 was 0.021 µM. Compound `COC(=O)c1c(C(=O)N2CCN(CCO)CC2)cc2cc(OC)c(OC)cc2c1-c1ccc(Cl)c(Cl)c1` has an IC50 of 53 µM. Work on `COC(=O)c1c(C(N)=O)cc2cc(OC)c(OC)cc2c1-c1cc(OC)c(OC)c(OC)c1` yielded an IC50 greater than 100 µM. `COC(=O)c1c(C(=O)N2CCN(CCO)CC2)cc2cc(OC)c(OC)cc2c1-c1cc(N)c(OC)c(OC)c1` gave an IC50 of 30 µM. Compound `COC(=O)c1c(C(=O)N2CCN(CCO)CC2)cc2cc(OC)c(OC)cc2c1-c1cccc([N+](=O)[O-])c1` has an IC50 greater than 100 µM. `CNC(=O)c1cc2cc(OC)c(OC)cc2c(-c2cc(OC)c(OC)c(OC)c2)c1C(=O)OC` was tested, and the IC50 was greater than 100 µM. `COC(=O)c1c(C(=O)N2CCN(C)CC2)cc2cc(OC)c(OC)cc2c1-c1cc(OC)c(OC)c(OC)c1` showed an IC50 of 1.4 µM.

What follows are compounds tested against Phosphodiesterase 2 (Canis familiaris) (assay: Inhibition of canine adrenal gland Phosphodiesterase 2). Details: not given.
In the case of `COC(=O)c1c(C(=O)N2CCN(CCO)CC2)cc2ccccc2c1-c1cc(Br)c(OC)c(OC)c1`, the IC50 is reported as greater than 100 µM. With `COC(=O)c1c(C(=O)N2CCN(CCO)CC2)cc2cc(OC)c(OC)cc2c1-c1cc(Br)c(OC)c(OC)c1` the IC50 was greater than 100 µM.
